Key:
Chlorella sorokiniana = experiment: Malathion growth study: neutral lipid content; assay type: cell-based, Chlorella sorokiniana (UTEX 2805); conditions: for increase in lipid production over the control: day 6
Experimental: • Biomass Composition: Neutral lipids were estimated using an Ankom XT10 automated extractor (Chinnasamy et al., (2010) Bioresource Technol. 101: 3097-3105). Lipid content was measured gravimetrically using hexane as solvent. The same filters used for the biomass measurements (from 25 mL of culture) were used for the lipid estimation as they provided the initial weight of biomass (W1). The filters were then placed into Ankom XT4 extraction bags, sealed with the impulse sealer and then autoclaved at 121° C. for 15 min. After drying, the extraction bags were placed in a resealable plastic bag with desiccant material while each individual bag was removed and carefully weighed (W2). Extraction bags were then placed into the Ankom extractor and extraction was performed for 2 h at 105° C. with hexane as solvent. Bags were then transferred to a forced-air oven and dried at 60° C. overnight, then cooled in a dessicator and weighed (W3). The following equation was used to calculate the lipid content of algal samples:
• Test strain: Chlorella sorokiniana (UTEX 2805) was obtained from UTEX Culture Collections and maintained in BG11 medium (Stanier et al., (1971) Bacteria Rev. 35: 171-205, incorporated herein in its entirety). The pH of culture medium was adjusted to 7.5±0.2 before inoculation and the alga was maintained in a temperature controlled growth chamber at 25±1° C. and 100±10 μmol m^−2 s^−1 light intensity with 12/12 h L/D cycle provided by cool white fluorescent (6500 K) T-8 bulbs. • Pesticide: A twelve day time-scale growth study was conducted to evaluate the effect of pesticide toxicity on algal growth and metabolism. The pesticide malathion (Spectracide, 50% v/v) was used and added to fresh BG11 medium to obtain final concentrations of 70, 140, 280 and 560 mg of malathion L^−1 for the treatments. […] After sterilization, C. sorokiniana was added as inoculum to obtain an initial biomass concentration of 0.075 g L^−1 in all the treatments in triplicates. The cultures were incubated in the growth chamber as explained above. For each sampling period, three randomly chosen flasks of each treatment were removed and then refrigerated at 4° C. until further analysis.

Nostoc calcicola = conditions: cited from earlier work

## CCOC(=O)CC(SP(=S)(OC)OC)C(=O)OCC (stereo not shown) [malathion, 2-(dimethoxyphosphinothioylthio)butanedioic acid diethyl ester]
Chlorella sorokiniana; 70 mg malathion L^−1
  increase in lipid production over the control: 70%
Chlorella sorokiniana; 70 mg malathion L^−1, day 9
  increase in lipid over control: 42%
Chlorella sorokiniana; 140 mg malathion L^−1
  increase in lipid production over the control: 110%
Chlorella sorokiniana; 140 mg malathion L^−1, day 9
  increase in lipid over control: 119%
Chlorella sorokiniana; 140 mg malathion L^−1, day 12
  increase in lipid content over control: 25%
Chlorella sorokiniana; 280 mg malathion L^−1
  increase in lipid production over the control: 325%
Chlorella sorokiniana; 280 mg malathion L^−1, day 9
  increase in lipid over control: 212%
Chlorella sorokiniana; T1, 70 mg malathion L^−1, day 9, control 97%
  increase in lipid content of the cells with respect to day 3: 193%
Chlorella sorokiniana; T1, 70 mg malathion L^−1, day 12, control 287%
  increase in lipid content of the cells with respect to day 3: 406%
Chlorella sorokiniana; T2, 140 mg malathion L^−1, day 9, control 97%
  increase in lipid content of the cells with respect to day 3: 150%
Chlorella sorokiniana; T2, 140 mg malathion L^−1, day 12, control 287%
  increase in lipid content of the cells with respect to day 3: 574%
Chlorella sorokiniana; concentrations ranging from 70-280 mg L^−1 in the growth medium
  increase in lipid production: 70-325%
Nostoc calcicola
  concentration above which growth was reduced: above 500 mg L^−1

— patent US20110091945A1, “METHODS OF INCREASING BIOMASS PRODUCTIVITY, LIPID INDUCTION, AND CONTROLLING METABOLITES IN ALGAE FOR PRODUCTION OF BIOFUELS USING BIOCHEMICAL STIMULANTS” (priority 2009, published 2011)
